Laboratory results published in the supplement of paper PMC11208160.

Experiment: recombinant UMI read abundance after kanamycin selection (control-corrected) (log10(CPM+1)); higher = more efficient recombination; extreme values may be limits of the assay; sequences stand for … in AGTGCAGAGAAAATCGGCCAGTTTTCTCTGCCTGCAGTCCGCATGCCGTGGGACCCCTTGGGTTCTAACCTGTTGCCTAGATTTATGCAGCGGACTGCCTTTCTCCCAAAGTGATAAACCGG…AGGTTGGTTTCACT; site = the 11-nt donor
Summary of the method: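 In Escherichia coli, a pool of donor and donor-binding-loop pairs, each with a 12-nt UMI, was tested for the IS621 bridge recombinase. Plating was on IPTG (0.07 mM) plus kanamycin, or without selection, in two replicates. Recombinant UMIs were amplified by PCR across the donor–target junction and sequenced, and counts were reported as log10(CPM+1) after averaging and control-derived scaling.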
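Further: IS621 bridge recombinase in Escherichia coli cells against a fixed T5 target plasmid.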

Sequence	recombinant UMI read abundance (log10)
CGTTAGGCATGGACCGGTTTTCCCGGTAATCCGTATTTGCT (site CGTTGGGCTAG)	0
CGTTAGGCATGGACCGGTTTTCCCGGTAATCCGTATTTGCT (site CGTTTGGCTAG)	0.00436
CGTTCGGCATGGACCGGTTTTCCCGGTAATCCGTATTTGTC (site CGTTCGGCTGA)	0
CGTTGCACATGGACCGGTTTTCCCGGTAATCCGTATTTGGG (site CGTTGCACTCC)	0.0529
CGTTGGACATGGACCGGTTTTCCCGGTAATCCGTATTTGAG (site CGTTAGACTCT)	0.878
CGTTGGACATGGACCGGTTTTCCCGGTAATCCGTATTTGAG (site CGTTCGACTCT)	0.022
CGTTGGACATGGACCGGTTTTCCCGGTAATCCGTATTTGAG (site CGTTGGACTCT)	1.36
CGTTGGACATGGACCGGTTTTCCCGGTAATCCGTATTTGAG (site CGTTTGACTCT)	0.0464
CGTTGTCCATGGACCGGTTTTCCCGGTAATCCGTATTTGCT (site CGTTGTCCTAG)	0.968
CGTTGTTCATGGACCGGTTTTCCCGGTAATCCGTATTTGTA (site CGTTGTTCTTA)	2.19
CGTTTGGCATGGACCGGTTTTCCCGGTAATCCGTATTTGAT (site CGTTTGGCTAA)	0.0113
CGTTTGGCATGGACCGGTTTTCCCGGTAATCCGTATTTGAT (site CGTTTGGCTAC)	0.0714
CGTTTGGCATGGACCGGTTTTCCCGGTAATCCGTATTTGAT (site CGTTTGGCTAG)	1.09
CGTTTGGCATGGACCGGTTTTCCCGGTAATCCGTATTTGAT (site CGTTTGGCTAT)	2.22
CTAAACTCATGGACCGGTTTTCCCGGTAATCCGTATTTGAA (site CTAAACTCTTT)	3.08
CTAACCCCATGGACCGGTTTTCCCGGTAATCCGTATTTGTA (site CTAACCCCTTA)	1.67
CTAACCGCATGGACCGGTTTTCCCGGTAATCCGTATTTGTT (site CTAACCGCTAA)	1.6
CTAACTTCATGGACCGGTTTTCCCGGTAATCCGTATTTGCA (site CTAACTTCTTG)	2.08
CTAAGGGCATGGACCGGTTTTCCCGGTAATCCGTATTTGAT (site CTAAGGGCTAT)	2.15
CTAATATCATGGACCGGTTTTCCCGGTAATCCGTATTTGAC (site CTAATATCTGT)	2.69
CTAATATCATGGACCGGTTTTCCCGGTAATCCGTATTTGAC (site CTACTATCTGT)	0
CTAATATCATGGACCGGTTTTCCCGGTAATCCGTATTTGAC (site CTAGTATCTGT)	2.29
CTAATATCATGGACCGGTTTTCCCGGTAATCCGTATTTGAC (site CTATTATCTGT)	1.3

Sequence	recombinant UMI read abundance (log10)
CTAATATCATGGACCGGTTTTCCCGGTAATCCGTATTTGAG (site CTAATATCTCT)	3.07
CTAATATCATGGACCGGTTTTCCCGGTAATCCGTATTTGAG (site CTAGTATCTGT)	0
CTAATGACATGGACCGGTTTTCCCGGTAATCCGTATTTGAT (site CTAATGACTAT)	1.69
CTAATGACATGGACCGGTTTTCCCGGTAATCCGTATTTGCA (site CTAATGACTTG)	2.01
CTACCAACATGGACCGGTTTTCCCGGTAATCCGTATTTGGA (site CTACAAACTTC)	0
CTACCAACATGGACCGGTTTTCCCGGTAATCCGTATTTGGA (site CTACCAACTTC)	0.959
CTACCAACATGGACCGGTTTTCCCGGTAATCCGTATTTGGA (site CTACGAACTTC)	0
CTACCAACATGGACCGGTTTTCCCGGTAATCCGTATTTGGA (site CTACTAACTTC)	0.0192
CTACCATCATGGACCGGTTTTCCCGGTAATCCGTATTTGCT (site CGATCATCTAG)	0
CTACCATCATGGACCGGTTTTCCCGGTAATCCGTATTTGCT (site CTACCATCTAG)	2.35
CTACCCGCATGGACCGGTTTTCCCGGTAATCCGTATTTGCT (site CTACCCGCTAG)	1.43
CTACGCACATGGACCGGTTTTCCCGGTAATCCGTATTTGAG (site CTACGCACTCT)	1.29
CTACGCTCATGGACCGGTTTTCCCGGTAATCCGTATTTGAT (site CTACGCTCTAT)	2.86
CTACTAACATGGACCGGTTTTCCCGGTAATCCGTATTTGTA (site CTACTAACTTA)	2.03
CTACTAACATGGACCGGTTTTCCCGGTAATCCGTATTTGTA (site CTACTAACTTC)	0.53
CTACTAACATGGACCGGTTTTCCCGGTAATCCGTATTTGTA (site CTACTAACTTG)	1.51
CTACTAACATGGACCGGTTTTCCCGGTAATCCGTATTTGTA (site CTACTAACTTT)	1.92
CTACTCACATGGACCGGTTTTCCCGGTAATCCGTATTTGGG (site CTACTCACTCC)	0.286
CTACTCCCATGGACCGGTTTTCCCGGTAATCCGTATTTGGC (site CTACTCCCTGC)	1.59
CTACTCTCATGGACCGGTTTTCCCGGTAATCCGTATTTGTA (site CTACTCTCTTA)	3.26
CTACTCTCATGGACCGGTTTTCCCGGTAATCCGTATTTGTA (site CTCCTCTCTTA)	1.19
CTACTCTCATGGACCGGTTTTCCCGGTAATCCGTATTTGTA (site CTGCTCTCTTA)	1.32
CTACTCTCATGGACCGGTTTTCCCGGTAATCCGTATTTGTA (site CTTCTCTCTTA)	1.42

Sequence	recombinant UMI read abundance (log10)
CTACTGTCATGGACCGGTTTTCCCGGTAATCCGTATTTGTA (site CTACTGTCTTA)	3.13
CTAGGTACATGGACCGGTTTTCCCGGTAATCCGTATTTGAC (site ATAGGTACTGT)	0
CTAGGTACATGGACCGGTTTTCCCGGTAATCCGTATTTGAC (site CTAGGTACTGT)	2.1
CTAGGTACATGGACCGGTTTTCCCGGTAATCCGTATTTGAC (site GTAGGTACTGT)	0
CTAGGTACATGGACCGGTTTTCCCGGTAATCCGTATTTGAC (site TTAGGTACTGT)	0
CTAGTAACATGGACCGGTTTTCCCGGTAATCCGTATTTGAG (site CTAGTAACTCT)	2.89
CTAGTAACATGGACCGGTTTTCCCGGTAATCCGTATTTGAG (site CTAGTATCTGT)	0
CTAGTAACATGGACCGGTTTTCCCGGTAATCCGTATTTGTC (site CTAGTAACTGA)	2.78
CTAGTAACATGGACCGGTTTTCCCGGTAATCCGTATTTGTC (site CTAGTATCTGT)	0
CTAGTACCATGGACCGGTTTTCCCGGTAATCCGTATTTGAC (site CTAGTAACTGT)	0
CTAGTACCATGGACCGGTTTTCCCGGTAATCCGTATTTGAC (site CTAGTACCTGT)	0
CTAGTACCATGGACCGGTTTTCCCGGTAATCCGTATTTGAC (site CTAGTAGCTGT)	0.415
CTAGTACCATGGACCGGTTTTCCCGGTAATCCGTATTTGAC (site CTAGTATCTGT)	2.88
CTAGTATCATGGACCGGTTTTCCCGGTAATCCGTATTTGAA (site CTAGTATCTAT)	2.59
CTAGTATCATGGACCGGTTTTCCCGGTAATCCGTATTTGAA (site CTAGTATCTCT)	2.4
CTAGTATCATGGACCGGTTTTCCCGGTAATCCGTATTTGAA (site CTAGTATCTGT)	1.91
CTAGTATCATGGACCGGTTTTCCCGGTAATCCGTATTTGAA (site CTAGTATCTTT)	2.92
CTAGTATCATGGACCGGTTTTCCCGGTAATCCGTATTTGAG (site CTAGTATCTAT)	2.35
CTAGTATCATGGACCGGTTTTCCCGGTAATCCGTATTTGAG (site CTAGTATCTCT)	2.61
CTAGTATCATGGACCGGTTTTCCCGGTAATCCGTATTTGAG (site CTAGTATCTGT)	1.68
CTAGTATCATGGACCGGTTTTCCCGGTAATCCGTATTTGAG (site CTAGTATCTTT)	2.29
CTAGTATCATGGACCGGTTTTCCCGGTAATCCGTATTTGTG (site CTAGTATCTCA)	2.97
